From patent US20230398130A1, “METHODS AND COMPOSITIONS FOR DIFFERENTIATING STEM CELLS” (Massachusetts Institute of Technology, priority 2020, published 2023)

Key:
[1] = system: ISC-enriched organoids; assay: Primary screen, 384-well 2.5-D organoid differentiation (ENR+CD, 6 days): basal lysozyme secretion (LYZ.NS); format: cell-based, murine; conditions: primary screen; for Dose.FC.LYZ.NS (log 2 fold change): vs plate median
From the text: (§1) High-throughput screening.

[2] = system: ISC-enriched organoids; assay: Primary screen, 384-well 2.5-D organoid differentiation (ENR+CD, 6 days): carbachol-induced lysozyme secretion (LYZ.S); format: cell-based, murine; conditions: primary screen, vs plate median
From the text: as §1

[3] = system: ISC-enriched organoids; assay: Primary screen, 384-well 2.5-D organoid differentiation (ENR+CD, 6 days, Target Selective Inhibitor Library, vs whole-plate median): ATP (CellTiter-Glo 3D, CTG); conditions: primary screen; for Dose.FC.CTG (log 2 fold change): vs plate median

| Compound | Z.LYZ.NS (standard z score) ([1]; Dose 0.08 uM) | Dose.FC.LYZ.NS (log 2 fold change) ([1]; Dose 0.08 uM) | Z.LYZ.NS (standard z score) ([1]; Dose 0.40 uM) | Dose.FC.LYZ.NS (log 2 fold change) ([1]; Dose 0.40 uM) | Z.LYZ.NS (standard z score) ([1]; Dose 2.00 uM) | Dose.FC.LYZ.NS (log 2 fold change) ([1]; Dose 2.00 uM) | Z.LYZ.NS (standard z score) ([1]; Dose 10.00 uM) | Dose.FC.LYZ.NS (log 2 fold change) ([1]; Dose 10.00 uM) | Dose.FC.LYZ.S (log 2 fold change) ([2]; Dose 0.08 uM) | Dose.FC.LYZ.S (log 2 fold change) ([2]; Dose 0.40 uM) | Dose.FC.LYZ.S (log 2 fold change) ([2]; Dose 2.00 uM) | Dose.FC.LYZ.S (log 2 fold change) ([2]; Dose 10.00 uM) | Z.CTG (standard z score) ([3]; Dose 0.08 uM) | Dose.FC.CTG (log 2 fold change) ([3]; Dose 0.08 uM) | Z.CTG (standard z score) ([3]; Dose 0.40 uM) | Dose.FC.CTG (log 2 fold change) ([3]; Dose 0.40 uM) | Z.CTG (standard z score) ([3]; Dose 2.00 uM) | Dose.FC.CTG (log 2 fold change) ([3]; Dose 2.00 uM) | Z.CTG (standard z score) ([3]; Dose 10.00 uM) | Dose.FC.CTG (log 2 fold change) ([3]; Dose 10.00 uM) |
| --- | --- | --- | --- | --- | --- | --- | --- | --- | --- | --- | --- | --- | --- | --- | --- | --- | --- | --- | --- | --- |
| O=C(Nc1ccccc1Br)N[C@@H]1CCN(c2ccc(C(F)(F)F)cn2)C1 [SB705498] | 0.642 | 0.074 | −0.433 | −0.050 | −0.008 | −0.001 | −0.154 | −0.018 | 0.094 | 0.023 | −0.030 | −0.023 | 0.318 | 0.133 | −0.102 | −0.043 | −0.009 | −0.004 | −0.089 | −0.037 |
| O=S(=O)(c1ccccc1)c1cnc2c(N3CCNCC3)cccc2c1 [SB742457] | 0.108 | 0.012 | −0.537 | −0.062 | 0.598 | 0.069 | 0.115 | 0.013 | −0.055 | −0.029 | −0.003 | −0.006 | −0.693 | −0.290 | −0.300 | −0.126 | −0.423 | −0.177 | −0.702 | −0.294 |
| Cc1ccc(C(=O)N(CCCN)[C@@H](c2oc3cc(Cl)ccc3c(=O)c2Cc2ccccc2)C(C)C)cc1 [SB743921] | −2.017 | −0.232 | −2.148 | −0.247 | −2.297 | −0.264 | −2.068 | −0.238 | −0.321 | −0.329 | −0.340 | −0.350 | −1.159 | −0.485 | −1.855 | −0.777 | −1.158 | −0.485 | −1.294 | −0.542 |
| O=C(NNc1nc2cc(F)ccc2n2cccc12)c1cnccn1 [SC144] | 0.582 | 0.067 | −0.112 | −0.013 | −0.220 | −0.025 | −1.355 | −0.156 | 0.098 | 0.014 | −0.131 | −0.211 | 0.381 | 0.160 | 0.309 | 0.129 | −0.613 | −0.257 | −2.113 | −0.885 |
